In patent publication US9963462B2 (priority 2015, dated 2018):
pIC50: −log10 of the molar value.

Tests used:
[1] = target: SNAP-hSPR (sepiapterin reductase, SPR) (Homo sapiens, UniProt P35270); assay: biochemical; type: binding; details: terbium labelled SNAP-hSPR / SSZ labelled SNAP-EGFP; read-out: hTR-FRET IC50
[2] = system: BH4 production in human peripheral blood mononuclear cells (PBMCs); assay: hPBMC assay, inhibition of BH4 production by LC-MS (anti-CD3/anti-CD28 stimulated); type: cell-based; details: PBMC, read-out: hPBMC IC50
Protocol: hPBMC Assay: PBMCs were either purchased or isolated from fresh human blood and used either as a fresh preparation or frozen for later use. The assay system was prepared by pre-treating the assay plates overnight with a solution containing anti-human CD3 antibody. Human PBMCs were suspended in assay medium and plated into the assay plates at a density of 1-4×10^5 cells per well. The desired concentration of the test compound was added to each well. A solution of human anti-CD28 antibody was also added to each well. Plates were incubated for 12-48 hours at 37° C. and 5% CO2. Assay plates were centrifuged for 5-15 minutes at 1-3000 RMP and supernatants were removed. The cells were lysed, sealed and used directly or frozen at −80° C. LC-MS was used to quantify the amount of inhibition of BH4 production.
PBMCs were either purchased or isolated from fresh human blood and used either as a fresh preparation or frozen for later use. The assay system was prepared by pre-treating the assay plates overnight with a solution containing anti-human CD3 antibody. Human PBMCs were suspended in assay medium and plated into the assay plates at a density of 1-4×10^5 cells per well. The desired concentration of the test compound was added to each well. A solution of human anti-CD28 antibody was also added to each well. Plates are incubated for 12-48 hours at 37° C. and 5% CO2. Assay plates were centrifuged for 5-15 minutes at 1-3000 RMP and supernatants were removed. The cells were lysed, sealed and used directly or frozen at −80° C.

Chain of SNAP-hSPR (sepiapterin reductase, SPR) (P35270 whole entry): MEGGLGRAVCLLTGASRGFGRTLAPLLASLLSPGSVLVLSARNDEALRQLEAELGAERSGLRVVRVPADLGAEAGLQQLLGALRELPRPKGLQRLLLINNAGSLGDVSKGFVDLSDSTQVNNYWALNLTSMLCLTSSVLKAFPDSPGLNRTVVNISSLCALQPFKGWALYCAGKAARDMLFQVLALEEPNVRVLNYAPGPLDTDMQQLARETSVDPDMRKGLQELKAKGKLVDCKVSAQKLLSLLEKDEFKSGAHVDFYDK

Compound	pIC50 [1]	pIC50 [2]
C=C(c1cnn(C(C)C)c1NC(=O)c1cnn(-c2nn3cccc3c(=O)[nH]2)c1C)C(F)(F)F [Q-1143]	8.52	6.51
Cc1c(C(=O)N2CC(c3ccc(F)nc3)C2)cnn1-c1nn2cccc2c(=O)[nH]1 [Q-1144]	9.00	7.15
Cc1c(C(=O)N2CCN(c3nnc(C(F)(F)F)o3)CC2)cnn1-c1nn2cccc2c(=O)[nH]1 [Q-1145]	8.52	6.72
Cc1c(C(=O)N2CCc3nc(-c4ccc(Cl)cc4)sc3C2)cnn1-c1nn2cccc2c(=O)[nH]1 [Q-1146]	8.30	6.42
Cc1c(C(=O)N2CCc3nc(-c4ccccc4Cl)sc3C2)cnn1-c1nn2cccc2c(=O)[nH]1 [Q-1147]	8.15	6.28
Cc1c(C(=O)N2CCc3nc(-c4ccc(C(F)(F)F)cc4)sc3C2)cnn1-c1nn2cccc2c(=O)[nH]1 [Q-1148]	8.00	6.27
Cc1c(C(=O)N2CCN(c3ncc(-c4ccccc4F)o3)CC2)cnn1-c1nn2cccc2c(=O)[nH]1 [Q-1149]	8.30	6.68
Cc1c(C(=O)N2CCN(c3ncc(-c4ccccc4Cl)o3)CC2)cnn1-c1nn2cccc2c(=O)[nH]1 [Q-1151]	8.10	6.51
Cc1c(C(=O)N2CCN(c3nc(-c4ccccc4Cl)cs3)CC2)cnn1-c1nn2cccc2c(=O)[nH]1 [Q-1152]	8.10	6.42
Cc1c(C(=O)N2CCN(c3nc(-c4ccccc4C(F)(F)F)cs3)CC2)cnn1-c1nn2cccc2c(=O)[nH]1 [Q-1153]	8.10	6.20
Cc1c(C(=O)N2CCN(c3nnc(-c4cccc(Cl)c4)o3)CC2)cnn1-c1nn2cccc2c(=O)[nH]1 [Q-1154]	8.30	6.46
Cc1c(C(=O)N2CCN(c3nc(-c4cccc(Cl)c4)cs3)CC2)cnn1-c1nn2cccc2c(=O)[nH]1 [Q-1155]	8.00	6.57
Cc1c(C(=O)N2CCN(c3nc(-c4cccc(F)c4)cs3)CC2)cnn1-c1nn2cccc2c(=O)[nH]1 [Q-1156]	8.22	6.96
Cc1c(C(=O)N2CCN(c3ncc(-c4cccc(F)c4)o3)CC2)cnn1-c1nn2cccc2c(=O)[nH]1 [Q-1157]	8.40	6.31
Cc1c(C(=O)N2CCc3nc(-c4ccccn4)sc3C2)cnn1-c1nn2cccc2c(=O)[nH]1 [Q-1158]	8.70	6.89
Cc1c(C(=O)N2CCN(c3ncc(-c4cccc(C(F)(F)F)c4)o3)CC2)cnn1-c1nn2cccc2c(=O)[nH]1 [Q-1159]	7.70	6.22

Compound	pIC50 [1]	pIC50 [2]
Cc1c(C(=O)N2CCc3nc(-c4ccc(F)cc4)sc3C2)cnn1-c1nn2cccc2c(=O)[nH]1 [Q-1160]	8.52	6.96
Cc1c(C(=O)N2CCN(c3ncc(-c4ccncc4)o3)CC2)cnn1-c1nn2cccc2c(=O)[nH]1 [Q-1161]	8.52	6.51
Cc1c(C(=O)N2CCN(c3ncc(-c4cccnc4)o3)CC2)cnn1-c1nn2cccc2c(=O)[nH]1 [Q-1162]	9.00	7.02
Cc1c(C(=O)N2CCN(c3nc(-c4ccnc(Cl)c4)cs3)CC2)cnn1-c1nn2cccc2c(=O)[nH]1 [Q-1163]	8.70	7.17
Cc1c(C(=O)N2CCN(c3nc(-c4cccnc4)cs3)CC2)cnn1-c1nn2cccc2c(=O)[nH]1 [Q-1164]	9.00	7.43
Cc1c(C(=O)N2CCN(c3nc(-c4ccccc4F)cs3)CC2)cnn1-c1nn2cccc2c(=O)[nH]1 [Q-1165]	8.22	6.72
Cc1c(C(=O)N2CCc3nc(-c4cccc(Cl)c4)sc3C2)cnn1-c1nn2cccc2c(=O)[nH]1 [Q-1166]	8.30	7.70
Cc1c(C(=O)N2CCc3nc(-c4cccc(C(F)(F)F)c4)sc3C2)cnn1-c1nn2cccc2c(=O)[nH]1 [Q-1167]	8.00	7.09
Cc1c(C(=O)N2CC3CC(C2)N3C2CCC2)cnn1-c1nn2cccc2c(=O)[nH]1 [Q-1168]	8.52	7.24
Cc1c(C(=O)N2CC3CC(C2)N3C(=O)OC(C)(C)C)cnn1-c1nn2cccc2c(=O)[nH]1 [Q-1170]	9.00	6.80
Cc1c(C(=O)N2CCN(c3ncc(-c4ccccc4C(F)(F)F)o3)CC2)cnn1-c1nn2cccc2c(=O)[nH]1 [Q-1171]	8.00	6.85
Cc1c(C(=O)N2CCN(c3nc(-c4ccccc4C#N)cs3)CC2)cnn1-c1nn2cccc2c(=O)[nH]1 [Q-1172]	8.52	6.74
Cc1c(C(=O)N2CCN(c3nc(-c4cccc(C(F)(F)F)c4)cs3)CC2)cnn1-c1nn2cccc2c(=O)[nH]1 [Q-1173]	7.70	6.54
Cc1c(C(=O)N2CC3CCCC(C2)C3=CC(F)(F)F)cnn1-c1nn2cccc2c(=O)[nH]1 [Q-1174]	9.00	7.66
Cc1c(C(=O)N2CCN(c3ncc(-c4ccc(C(F)(F)F)cc4)o3)CC2)cnn1-c1nn2cccc2c(=O)[nH]1 [Q-1175]	7.70	6.35
